In PubChem BioAssay (NCI):
“And” between values parts separate entries of the source, which are not always exact repeats. Identical values can stand only once.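 Assay format: 96-well plates, 48-hour exposure. The concentration for 50% growth inhibition is given as GI50. At the TGI there is no net growth.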

What was measured:
Assay in all cases: NCI tumour cell line growth inhibition, 48 h
DLD-1 colon = system: DLD-1 colon
HOP-18 NSCLC = system: HOP-18 NSCLC
DMS 114 small cell lung = system: DMS 114 small cell lung
KM20L2 colon = system: KM20L2 colon
SNB-78 CNS = system: SNB-78 CNS
M19-MEL melanoma = system: M19-MEL melanoma
XF 498 CNS = system: XF 498 CNS
RXF-631 renal = system: RXF-631 renal
MDA-N = system: MDA-N
P388 leukemia = system: P388 leukemia
P388/ADR leukemia = system: P388/ADR leukemia
SN12K1 renal = system: SN12K1 renal

Structure (SMILES)	TGI (DLD-1 colon)	TGI (HOP-18 NSCLC)	TGI (DMS 114 small cell lung)	TGI (KM20L2 colon)	TGI (SNB-78 CNS)	TGI (M19-MEL melanoma)	TGI (XF 498 CNS)	TGI (MDA-N)	also measured
CCN(CC)CCC(=O)N1CCc2c([nH]c3ccccc23)C1c1cccnc1 (centres undefined)	> 100 µM	> 100 µM	> 100 µM	> 100 µM	> 100 µM	> 100 µM	> 100 µM	–	–
O=c1[nH]c(=O)n(C2CC(O)C(CO)O2)cc1C#Cc1cc(C(F)(F)F)cc(C(F)(F)F)c1 (centres undefined)	> 100 µM	> 100 µM	> 100 µM	> 100 µM	> 100 µM	> 74 µM	> 86.6 µM	–	TGI (RXF-631 renal): > 100 µM
Cc1[nH]n(-c2ccc(S(=O)(=O)O)cc2)c(=O)c1N=Nc1ccccc1	–	–	–	–	–	–	–	> 100 µM	–
N#CCCN(CCC#N)c1ccc(/C=N\c2nc(-c3ccccc3)cs2)cc1	> 100 µM	–	> 100 µM	> 100 µM	> 100 µM	> 100 µM	> 100 µM	–	TGI (RXF-631 renal): > 100 µM
C[N+](C)(C)Cc1c(CC#N)[nH]c2ccccc12	> 100 µM	–	> 100 µM	> 100 µM	–	> 100 µM	> 100 µM	–	–
COc1ccc2cc3[n+](cc2c1OC)CCc1cc2c(cc1-3)OCO2	> 59.9 µM and 253 µM	> 100 µM and 207 µM	> 64.8 µM and 76.7 µM	> 92.5 µM and 94.6 µM	> 100 µM and 167 µM	22.4 µM and 41.6 µM	66.6 µM and 31.4 µM	–	GI50 (DLD-1 colon): 26.2 µM and 54.2 µM; TGI (P388 leukemia): 69.6 µM; TGI (P388/ADR leukemia): > 325 µM; TGI (SN12K1 renal): 37.7 µM
Oc1ccc2c3c1OC1C(=NN=C4CCC5(O)C6Cc7ccc(O)c8c7C5(CCN6CC5CC5)C4O8)CCC4(O)C(C2)N(CC2CC2)CCC314 (centres undefined)	> 100 µM	> 100 µM	44.6 µM	41.7 µM	> 100 µM	40.9 µM	34.3 µM	–	–
CN(C)c1ccc(/C=C/c2ccnc3ccccc23)cc1N	–	–	–	–	–	–	–	12 µM	–
Nc1nc(Cl)c(N=Nc2ccc(Cl)cc2)c(NCC2(CO)CC(OCc3ccccc3)C2)n1 (centres undefined)	–	–	–	–	–	–	–	> 100 µM	GI50 (MDA-N): 29.5 µM and > 100 µM and 11.8 µM
CCOP(=O)(OCC)/C(C#N)=C/c1ccc[nH]1	> 100 µM	> 100 µM	> 100 µM	> 100 µM	> 100 µM	> 100 µM	–	–	–
N#Cc1c(-c2ccc(Cl)cc2)c(-c2ccc(Cl)cc2)nn(CCOC(=O)CCC(=O)O)c1=O	> 100 µM	> 100 µM	11.8 µM	4.89 µM	–	> 100 µM	–	0.202 µM	–
CCOCC(=O)N[C@H]1CCc2cc(OC(=O)COCC)c(OC)c(OC)c2-c2ccc(SC)c(=O)cc21	–	–	–	–	–	–	–	0.00611 µM	–
CCC[CH2][Sn]1([CH2]CCC)[O]C(=O)c2cccc(OC)c2[O]1	0.986 µM	1.95 µM	0.624 µM	2.68 µM	0.959 µM	1.23 µM	0.28 µM	–	GI50 (DLD-1 colon): 0.244 µM; GI50 (HOP-18 NSCLC): 0.687 µM; GI50 (DMS 114 small cell lung): 0.196 µM; GI50 (KM20L2 colon): 1.33 µM; GI50 (SNB-78 CNS): 0.093 µM; GI50 (M19-MEL melanoma): 0.222 µM; GI50 (XF 498 CNS): 0.131 µM
Cn1cnc([N+](=O)[O-])c1Sc1nc2cccnc2s1	26.7 µM	–	28.5 µM	31.7 µM	> 100 µM	29.6 µM	39.2 µM	–	TGI (RXF-631 renal): 28.4 µM
COC(=O)c1c(C)cc2c(c1O)C1(O)C(=O)c3cc4c(c(O)c3C(=O)C1(OC)C(O)C2)C(=O)C=C(NC1OC(C)C(OC)C(O)C1OC)C4=O (centres undefined)	0.12 µM	–	0.0295 µM	0.395 µM	0.324 µM	0.0516 µM	0.235 µM	–	–
O=C(Nc1ccc([N+](=O)[O-])cc1C(=O)O)c1ccc([N+](=O)[O-])cc1	> 100 µM	–	50.7 µM	64.9 µM	–	> 100 µM	> 100 µM	–	TGI (RXF-631 renal): > 100 µM
O=C1C2C(C(=O)N1c1ccccc1)C1(c3ccccc3)OC2(c2ccccc2)c2ccccc21 (centres undefined)	> 100 µM	> 100 µM	> 100 µM	> 100 µM	–	> 100 µM	–	–	TGI (RXF-631 renal): > 100 µM
Cn1c(=O)c2[nH]c(C3CC(=O)CC(c4nc5c([nH]4)c(=O)n(C)c(=O)n5C)N3)nc2n(C)c1=O (centres undefined)	–	–	–	–	–	–	–	> 100 µM	–
N#CCC12CC=CCC1=C(O)C(=O)c1ccc(O)cc12 (centres undefined)	–	–	–	–	–	–	–	> 100 µM	–
CN(C)CC(C)(C)C(/C=C/c1ccccc1)=N\Nc1ccccc1	11.6 µM	73.1 µM	21.8 µM	0.0605 µM	26.8 µM	22.3 µM	–	–	–
